{
  "source": "paper PMC11982498",
  "about": "(Redox Biology, 2025)",
  "key": {"Aβ1-42 [1]": {"target": "T1, Aβ1-42 (Homo sapiens, UniProt P05067)", "T1 construct": "Aβ1-42 was purchased from Gill Biochemicals Ltd (Shanghai, China); purchased Gill Biochemicals Ltd (Shanghai, China)", "T1 sequence (P05067 672-713 limits assumed)": "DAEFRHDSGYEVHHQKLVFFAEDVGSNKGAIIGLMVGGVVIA", "test": "Thioflavine T fluorescence spectroscopy assay (time course to 96 h)", "format": "biochemical", "conditions": "20 μM compound, Aβ1-42 incubated for 96 h", "experimental": "(§1) The Aβ1-42 solutions (100 μM) were co-incubated with B14 (20 μM) or Curcumin (20 μM) at 37 °C protected from light for 96 h. 30 μL of Aβ1-42 solution was taken at different time points (0 h, 10 h, 24 h, 48 h, 72 h, 96 h), mixed fully with 400 μL of ThT solution (15 μM), and incubated in the dark for 30 min. The fluorescence signal was recorded by using a Cary Eclipse fluorescence spectrophotometer (Varian, USA) with the following setting: excitation wavelength at 440 nm, emission wavelength at 480 nm, and slit width of 20 nm.\nas §1, with “μM) and” for “μM) or”, “Aβ1-42 solutions were” for “Aβ1-42 solution was”, “by” for “by using”, “with” for “with the following setting:”"}, "ILPR promoter i-motif": {"target": "ILPR promoter i-motif", "test": "SPR binding to ILPR promoter i-motif", "conditions": "MES buffer pH 5.5"}, "RET promoter i-motif": {"system": "RET promoter i-motif", "test": "TO displacement assay, RET i-motif", "format": "binding", "experimental": "DNA oligonucleotides were diluted to 1 μM with 1 × PBES buffer at pH 5.5, annealed at 95 °C for 10 min, cooled to room temperature, and stored at 4 °C for future use. TO dye (1 μM) was added to the DNA solution followed with incubation for 1 h. The spectra of 100 μL mixture with addition of different equivalent compounds at 25 °C were recorded based on fluorescence emission (λex = 480 nm).\nTO displacement ratio (%) = (F0 − FC) / (F0 − FB) * 100.\nF0 and FC were the fluorescence intensity of TO at 536 nm with DNA before and after adding compounds, respectively. FB was the fluorescence intensity of TO at 536 nm with buffer only."}, "HT-22 cells": {"system": "HT-22 cells", "test": "MTT cytotoxicity assay, HT-22", "format": "cell-based", "conditions": "Mus musculus, incubation for 48 h", "experimental": "SH-SY5Y cells, HepG2 cells, HK-2 cells and HT-22 cells were seeded on 96-well plates (5.0×10^3 per well) with 100 μL of culture medium, and incubated for 12 h at 37 °C in a humidified atmosphere with 5% CO2, and then exposed to various concentrations of B14. After 48 h of treatment at 37 °C in a humidified atmosphere with 5% CO2, 100 μL of 0.5 mg/mL MTT solution was added to each well, and the mixture was further incubated for 4 h. The cells in each well were then treated with DMSO (200 μL for each well), and the culture medium was siphoned off, and the absorbance was recorded at 570 nm. All drug doses were parallel tested in triplicate, and the cytotoxicity was evaluated based on the percentage of cell survival in a dose-dependent manner regarding the negative control. The final IC50 values were determined by using Graph Pad Prism 9.0."}, "Aβ1-42 [2]": {"target": "T1, Aβ1-42", "test": "Dot blot of Aβ1-42 fibril aggregation", "format": "biochemical", "conditions": "20 μM compound, 24 h", "procedure": "After incubation at 37 °C for 24 h, 10 μL aliquots of 20 μM Aβ1-42 reaction mixtures were spotted onto nitrocellulose membranes. Membranes were blocked for 2 h with 5 % non-fat milk in TBS. After washing, membranes were incubated with the anti-Aβ fibril antibody (1:1,000, CST, USA) dissolved in TBS containing 3 % bovine serum albumin (BSA, Beyotime, Jiangsu, China) and 0.01 % Tween-20 (Solarbio, Beijing, China), and developed using an alkaline-phosphatase anti-rabbit secondary antibody (1:5,000, Proteintech, China). The bands were then detected using an enhanced chemiluminescence (ECL) kit (Millipore, USA).\nAfter incubation at 37 °C for 24h, 10 μL aliquots of 20 μM Aβ1-42 reactions were spotted onto nitrocellulose membranes. The membranes were blocked for 2 h with 5% non-fat milk in TBS. After washing, the membranes were incubated with the anti-Aβ fibril antibody (1:1000 dilution) dissolved in TBS containing 3% BSA and 0.01% Tween-20, and then developed using an alkaline-phosphatase antirabbit secondary antibody (1:5000 dilution). Invitrogen's Western Breeze Chemiluminescent kit was used to visualize the protein dots, and these dots were imaged using a FUJIFILM Luminescent Image Analyzer LAS-1000CH."}, "APP/PS1 transgenic mice [3]": {"system": "APP/PS1 transgenic mice", "test": "Nest building test (NBT)", "format": "in vivo", "conditions": "B14 10, 20, 40 mg/kg i.p. every other day", "source_text": "Five months old male APP/PS1 mice, weighing 25–33 g, were purchased from Guangdong Medical Laboratory Animal Center and housed in the Laboratory Animal Center of Sun Yat-sen University (Guangzhou, China) for experimentation. All procedures were approved by the Animal Care and Use Committee of Sun Yat-sen University and complied with legal requirements and national guidelines for the care and maintenance of laboratory animals (Approval No. SYSU-IACUC-2024-002032). The mice were housed in a specific pathogen-free environment with a controlled temperature of 22 ± 1 °C and a 12-h dark/light cycle. The mice were fed with a standard diet, and 30 mice were randomly divided into 6 groups (N = 5). Compound B14 was dissolved in saline and administered at doses of 10, 20, or 40 mg/kg. […]\n(§2) The spatial memory and learning abilities of the mice were assessed using Morris water maze (MWM), novel object recognition (NOR) and nesting experiments (NBT). The anxiety and depressive behaviors were evaluated through the open field test (OFT) and elevated plus maze (EPM). […]\nThe nest building test (NBT) assesses fine motor dexterity, cognitive function, and emotional states in mice while minimizing stress. […] After this period, photographs were taken of the paper sheets, and the nests built by the mice were scored."}, "APP/PS1 transgenic mice [4]": {"system": "APP/PS1 transgenic mice", "test": "Elevated plus maze (EPM)", "format": "in vivo", "conditions": "B14 10, 20, 40 mg/kg i.p. every other day", "source_text": "(§3) Five months old male APP/PS1 mice, weighing 25–33 g, were purchased from Guangdong Medical Laboratory Animal Center and housed in the Laboratory Animal Center of Sun Yat-sen University (Guangzhou, China) for experimentation. All procedures were approved by the Animal Care and Use Committee of Sun Yat-sen University and complied with legal requirements and national guidelines for the care and maintenance of laboratory animals (Approval No. SYSU-IACUC-2024-002032). The mice were housed in a specific pathogen-free environment with a controlled temperature of 22 ± 1 °C and a 12-h dark/light cycle. The mice were fed with a standard diet, and 30 mice were randomly divided into 6 groups (N = 5). Compound B14 was dissolved in saline and administered at doses of 10, 20, or 40 mg/kg. APP/PS1 male mice were grown until 6 months of age, and then injected intraperitoneally with compound B14 every other day for 60 days. Behavioral experiments were then conducted, and tissue specimens were collected for biochemical analysis.\nas §2, with “(EPM). Detailed experimental procedures are provided in the supplementary information.” for “(EPM).”"}, "APP/PS1 transgenic mice [5]": {"system": "APP/PS1 transgenic mice", "test": "TUNEL staining of brain sections", "format": "in vivo", "conditions": "B14 10, 20, 40 mg/kg i.p. every other day", "source_text": "as §3"}, "[6]": {"system": "MDA, SOD, GSH-Px, CAT in hippocampus of APP/PS1 mice", "test": "Biochemical parameters analysis (oxidative stress) in hippocampus", "format": "in vivo", "source_text": "as §3, with “Behavioral experiments were then conducted, and tissue specimens were collected for biochemical analysis.” left out\nThe hippocampi were homogenized in normal saline containing protease inhibitors. The homogenate was centrifuged at 2500 rpm for 10 min, and the protein concentration in the supernatant was measured by using the bicinchoninic acid (BCA, Beyotime, Jiangsu, China) method. The levels of malondialdehyde (MDA) and the activities of superoxide dismutase (SOD), glutathione peroxidase (GSH-Px) and […] (CAT) were determined by using relevant assay kits (Beyotime, Jiangsu, China)."}, "[7]": {"system": "F-BCL-2 (BCL-2 IM) (DNA, i motif) CAGCCCCGCTCCCGCCCCCTTCCTCCCGCGCCCGCCCCT", "test": "MST, Hill fit", "conditions": "K+ 100 mM KCl plus potassium phosphate; BPES buffer (30 mM phosphate, 1 mM EDTA), pH 5.5"}},
  "data": [
    {"smiles": "O=C(CCN1CCOCC1)Nc1ccc2c(c1)c(=O)c1cc(NC(=O)CCN3CCOCC3)ccc1n2-c1ccc2occc2c1", "note": "[Compound B14]", "values": [
      {"measurement": "decrease of ThT fluorescence intensity", "setting": "Aβ1-42 [1]", "value": "39.58 ± 2.08", "unit": "%"},
      {"measurement": "Kd", "setting": "ILPR promoter i-motif", "value": "> 50", "unit": "µM"},
      {"measurement": "TO displacement ratio", "setting": "RET promoter i-motif", "value": 27, "unit": "%"},
      {"measurement": "IC50", "setting": "HT-22 cells", "value": "> 100", "unit": "µM"},
      {"measurement": "formation of Aβ fibers (dot blot)", "setting": "Aβ1-42 [2]", "value": "reduced the formation of Aβ fibers and greatly decreased Aβ self-aggregation"},
      {"measurement": "nesting scores (NBT)", "setting": "APP/PS1 transgenic mice [3]", "value": "significantly improved"},
      {"measurement": "number of entries into the open arm and retention time (EPM)", "setting": "APP/PS1 transgenic mice [4]", "value": "significantly increased"},
      {"measurement": "proportion of TUNEL-positive neurons", "setting": "APP/PS1 transgenic mice [5]", "value": "significantly decreased the proportion of TUNEL-positive neurons"},
      {"measurement": "MDA level", "setting": "[6]", "value": "reduce the levels of lipid peroxides MDA"},
      {"measurement": "levels of antioxidant enzymes", "setting": "[6]", "value": "restore the levels of antioxidant enzymes (SOD, GSH-Px, and CAT)"},
      {"measurement": "KD", "setting": "[7]", "value": 1.06, "unit": "µM"}
    ]}
  ]
}
